In patent publication US12491185B2, “Inhibitors of mPTP” (NRG Therapeutics Ltd, priority 2023, dated 2025):

Tests used:
mPTP [1] = assay: mPTP activity (Ca2+ retention) assay in isolated rat liver mitochondria; type: biochemical; details: examples tested by different contract research organisations, believed comparable
Outline: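 pIC50 was taken from Fluo5N fluorescence at 10 min after a 75 μM CaCl2 bolus, scaled between DMSO (0%) and 5 μM cyclosporin A (100%). Compounds, ten half-log concentrations from 30 μM to 1 nM final, sat 10 min at RT with fresh female Sprague Dawley rat liver mitochondria energized by succinate plus rotenone.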

mPTP [2] = assay: mPTP activity assay in isolated rat brain mitochondria; type: biochemical; details: fluorescence at 10 min timepoint
Method: MPTP activity was measured in brain mitochondria freshly isolated from female Sprague Dawley (250 to 300 gram) rats. Anaesthetised rats were perfused in-situ with −40 ml cold Dulbecco's Phosphate Buffered Saline (DPBS), then brains dissected and transferred into 30 ml Isolation Buffer (225 mM mannitol, 75 mM sucrose, 1 mM EGTA, adjusted to pH 7.4 with 1M NaOH). The brain was minced using tweezers and a scalpel into −5 mm pieces then transferred into a 50 ml Potterton Dounce homogenization tube on ice containing 10 ml ice-cold isolation buffer (as above with addition of Complete Protease inhibitor; 1 tablet per 50 ml buffer). Homogenisation was carried out using a teflon pestle at 1800 rpm. The slurry was centrifuged at 2000 g for 10 min at 4° C., then the supernatant centrifuged at 12,000 g for 9 min. The pellet was resuspended with a dounce homogeniser in isolation buffer as above but with the addition of 0.02% digitonin, centrifuged at 12,000 g for 11 min and finally resuspended in 5 ml modified isolation buffer (as above but with EGTA reduced to 0.1 mM).
Test compounds were prepared in 384 well polypropylene assay plates as described above for the liver mitochondria assay. A stock mitochondria/Fluo5N assay solution was prepared in 5.6 ml assay buffer (120 mM mannitol, 40 mM MOPS, 5 mM KH2PO4, 60 mM KCl, 10 mM pyruvate, 2 mM malate, 2 mM MgCl2, 20 μM ADP, 1.26 μM oligomycin A, adjusted to pH 7.4) supplemented with Fluo5N pentapotassium salt (2 μM) and 1 ml mitochondria suspension, then transferred (15 μl) into the assay plate containing test compounds and incubated for 10 min at RT. Assay plates were then transferred to a FLIPR Tetra plate reader (Molecular Devices). Dye fluorescence was then measured every 3 sec for a total of 10 min.

mPTP Rat liver pIC50 (mPTP [1]) | mPTP Rat brain pIC50 (mPTP [2]) | Compound
6.75 | 7.83 | CC(NC(=O)c1nn(C)c(=O)[nH]1)C1(Cc2ccccc2)CCC1 (single isomer, unassigned) [Example 24A, N-(1-(1-benzylcyclobutyl)ethyl)-1-methyl-5-oxo-4,5-dihydro-1H-1,2,4-triazole-3-carboxamide]
<4.52 | 5.49 | CC(NC(=O)c1nn(C)c(=O)[nH]1)C1(Cc2ccccc2)CCC1 (single isomer, unassigned) [Example 24B, N-(1-(1-benzylcyclobutyl)ethyl)-1-methyl-5-oxo-4,5-dihydro-1H-1,2,4-triazole-3-carboxamide]
6.56 | 7.62 | CC(NC(=O)c1nn(C)c(=O)[nH]1)C(C)(C)Cc1ccccc1 (single isomer, unassigned) [Example 39B, N-(3,3-dimethyl-4-phenylbutan-2-yl)-1-methyl-5-oxo-4,5-dihydro-1H-1,2,4-triazole-3-carboxamide]
6.97 | 7.68 | CC(C)[C@H](CNC(=O)c1nn(C)c(=O)[nH]1)Cc1ccccc1 (single isomer, unassigned) [Example 46B]
5.04 | 5.68 | CC[C@@H](CNC(=O)c1nn(C)c(=O)[nH]1)Cc1ccccc1 (single isomer, unassigned) [Example 54a]
6.82 | 7.94 | CC[C@H](CNC(=O)c1nn(C)c(=O)[nH]1)Cc1ccccc1 (single isomer, unassigned) [Example 54b]
6.90 | 7.60 | CC[C@@H](Cc1ccc(F)cc1F)C(C)NC(=O)c1nn(C)c(=O)[nH]1 (single isomer, unassigned) [Example 223]
4.52 | 5.04 | CC[C@@H](Cc1ccc(F)cc1F)C(C)NC(=O)c1nn(C)c(=O)[nH]1 (single isomer, unassigned) [Example 224]
5.47 | 6.66 | CC(c1ccc(F)cc1F)[C@@H](CNC(=O)c1nccc(=O)[nH]1)C1CC1 (single isomer, unassigned) [Example 225]
4.52 | 4.82 | CC(c1ccc(F)cc1F)[C@@H](CNC(=O)c1nccc(=O)[nH]1)C1CC1 (single isomer, unassigned) [Example 226]
6.21 | 7.76 | Cn1nc(C(=O)NCC(C)(Cc2c(F)cc(F)cc2F)C2CC2)[nH]c1=O (single isomer, unassigned) [Example 227, N-[2-cyclopropyl-2-methyl-3-(2,4,6-trifluorophenyl)propyl]-1-methyl-5-oxo-4H-1,2,4-triazole-3-carboxamide]
6.16 | 7.12 | Cn1nc(C(=O)NCC(C)(Cc2c(F)cc(F)cc2F)C2CC2)[nH]c1=O (single isomer, unassigned) [Example 228, N-[2-cyclopropyl-2-methyl-3-(2,4,6-trifluorophenyl)propyl]-1-methyl-5-oxo-4H-1,2,4-triazole-3-carboxamide]
6.32 | 6.83 | Cn1nc(C(=O)NCC2(Cc3ccc(F)cc3F)CCCO2)[nH]c1=O (single isomer, unassigned) [Example 229]
6.18 | 6.40 | Cn1nc(C(=O)NCC2(Cc3ccc(F)cc3F)CCCO2)[nH]c1=O (single isomer, unassigned) [Example 230]
6.61 | 7.37 | Cn1nc(C(=O)NCC2(Cc3ccc(F)cc3F)CC23CC3)[nH]c1=O (single isomer, unassigned) [Example 231, N-((1-(2,4-difluorobenzyl)spiro[2.2]pentan-1-yl)methyl)-1-methyl-5-oxo-4,5-dihydro-1H-1,2,4-triazole-3-carboxamide]
6.65 | 7.56 | Cn1nc(C(=O)NCC2(Cc3ccc(F)cc3F)CC23CC3)[nH]c1=O (single isomer, unassigned) [Example 232, N-((1-(2,4-difluorobenzyl)spiro[2.2]pentan-1-yl)methyl)-1-methyl-5-oxo-4,5-dihydro-1H-1,2,4-triazole-3-carboxamide]
5.77 | 7.10 | O=C(NCC1(Cc2ccc(F)cc2F)CC12CC2)c1noc(=O)[nH]1 (single isomer, unassigned) [Example 233]
5.24 | 6.30 | O=C(NCC1(Cc2ccc(F)cc2F)CC12CC2)c1noc(=O)[nH]1 (single isomer, unassigned) [Example 234]
6.56 | 7.46 | CC(c1ccc(F)cc1F)[C@@H](CNC(=O)c1nn(C)c(=O)[nH]1)C1CC1 (single isomer, unassigned) [Example 237]
6.45 | 7.29 | CCC(F)(CNC(=O)c1nccc(=O)[nH]1)Cc1ccc(F)cc1F (single isomer, unassigned) [Example 255, N-(2-(2,4-difluorobenzyl)-2-fluorobutyl)-6-oxo-1,6-dihydropyrimidine-2-carboxamide]
5.09 | 6.13 | CCC(F)(CNC(=O)c1nccc(=O)[nH]1)Cc1ccc(F)cc1F (single isomer, unassigned) [Example 256, N-(2-(2,4-difluorobenzyl)-2-fluorobutyl)-6-oxo-1,6-dihydropyrimidine-2-carboxamide]
<4.57 | – | Cn1nc(C(=O)NCC2Cc3ccccc3O2)[nH]c1=O (stereo not shown) [Reference Example 114, N-((2,3-dihydrobenzofuran-2-yl)methyl)-1-methyl-5-oxo-4,5-dihydro-1H-1,2,4-triazole-3-carboxamide]

Compound | mPTP Rat liver pIC50 (mPTP [1]) | mPTP Rat brain pIC50 (mPTP [2])
O=C(NCC1(Cc2ccc(F)cc2F)CC12CC2)c1nccc(=O)[nH]1 (single isomer, unassigned) [Example 236] | 6.11 | 7.18
Cn1nc(C(=O)NCC(C)(Cc2ccc(F)cc2F)C2CC2)[nH]c1=O (single isomer, unassigned) [Example 240, N-(2-cyclopropyl-3-(2,4-difluorophenyl)-2-methylpropyl)-1-methyl-5-oxo-4,5-dihydro-1H-1,2,4-triazole-3-carboxamide] | 6.91 | 7.61
O=C(NCC1(Cc2ccc(F)cc2F)CC(F)C1)c1nccc(=O)[nH]1 (single isomer, unassigned) [Example 248] | 6.16 | 7.05
CC(CNC(=O)c1nccc(=O)[nH]1)(Cc1ccc(F)cc1)C1CC1 (single isomer, unassigned) [Example 251] | 6.21 | 7.06
O=C(NCC1(Cc2ccc(F)cc2F)CCC1)c1cncc(=O)[nH]1 [Example 16, N-((1-(2,4-difluorobenzyl)cyclobutyl)methyl)-6-oxo-1,6-dihydropyrazine-2-carboxamide] | – | 7.35
